Measurements: ChEMBL document CHEMBL5113537, “Discovery of β-Arrestin-Biased 25CN-NBOH-Derived 5-HT2A Receptor Agonists” (J Med Chem, 2022)
Calls of active or inactive are those of the source. The rule behind the calls is not given here.

Columns and labels:
[1] = target: 5-hydroxytryptamine receptor 2A (Homo sapiens) (UniProt P28223); assay: Agonist activity at wild type human 5HT2A transfected in HEK293T cells assessed as beta arrestin-2 recruitment measured for 2 hrs by luminescent assay; format: functional, cell-based; conditions: filed as agonist
Homo sapiens [2] = organism: Homo sapiens; assay: (§1) Selectivity ratio of EC50 for agonist activity at human 5HT2A S159A mutant transfected in HEK293T cells assessed as mini Galphaq recruitment measured for 2 hrs by luminescent assay to EC50 for agonist activity at human wild type 5HT2A transfected in HEK293T cells assessed as mini Galphaq recruitment measured for 2 hrs by luminescent assay; format: cell-based
Homo sapiens [3] = organism: Homo sapiens; assay: as §1, with “assessed as beta arrestin-2 recruitment measured” for “assessed as mini Galphaq recruitment measured”, “type 5HT2A receptor transfected in” for “type 5HT2A transfected in”; format: cell-based

Sequence of 5-hydroxytryptamine receptor 2A (Homo sapiens) (P28223 whole entry): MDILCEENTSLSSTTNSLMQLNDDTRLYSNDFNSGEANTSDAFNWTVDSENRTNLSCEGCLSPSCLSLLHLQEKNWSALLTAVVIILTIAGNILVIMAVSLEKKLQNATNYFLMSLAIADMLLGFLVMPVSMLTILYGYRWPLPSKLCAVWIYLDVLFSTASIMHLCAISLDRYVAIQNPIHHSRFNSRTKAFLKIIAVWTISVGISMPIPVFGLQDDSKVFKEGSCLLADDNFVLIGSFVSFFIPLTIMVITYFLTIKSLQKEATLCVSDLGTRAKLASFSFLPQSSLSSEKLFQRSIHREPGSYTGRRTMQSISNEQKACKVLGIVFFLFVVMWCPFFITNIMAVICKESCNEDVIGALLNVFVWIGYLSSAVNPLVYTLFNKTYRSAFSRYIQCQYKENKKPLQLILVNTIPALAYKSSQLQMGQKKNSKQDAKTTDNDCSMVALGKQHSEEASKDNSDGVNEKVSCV

In the case of `COc1cc(CCNC2COc3ccccc32)c(OC)cc1C#N` (racemic), the Activity [1] is reported as “Active”.
Compound `COc1cc(CCNCc2cccc(O)c2)c(OC)cc1Br` has a Ratio EC50 (Homo sapiens [2]) of 12 and a Ratio EC50 (Homo sapiens [3]) of 15.
`COc1cc(CCNCc2ccccc2F)c(OC)cc1C#N` showed a Ratio EC50 (Homo sapiens [3]) of 3.
